Molecules are shown by their SMILES.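 Tested at 5 concentrations; 48 h exposure; 96-well plates; endpoints linearly interpolated, else capped at highest concentration. At the GI50, growth is halved. TGI marks complete inhibition of growth.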

The test system of the test is MDA-MB-468 breast. Description: NCI tumour cell line growth inhibition, 48 h.
In the case of `Cc1ccc2c(n1)C(=O)C(Cl)=C(Nc1ccc(C#N)cc1)C2=O`, the GI50 is 1.78 µM and the TGI came out at 3.81 µM.
The matching figures for `COc1ccc(-c2cc(-c3ccc(Cl)cc3)nc(SCCCCCCC(=O)NO)n2)cc1`: 1.64 µM and 7.19 µM.
Regarding `C#CCOc1ccc(-c2csc(NC(=O)C=C)n2)cc1NS(=O)(=O)c1cccc2c(N(C)C)cccc12`, the GI50 is 0.823 µM and the TGI turned out to be 1.71 µM.
Consider `O=C(Nc1ccc(N2CCNCC2)cn1)c1[nH]ncc1Nc1ncnc2sccc12`, for which the GI50 was 1.69 µM and the TGI was 3.42 µM.
With `CCCCCCCCCCCCC(NC(C)=O)(C(=O)OCC)C(=O)OCC`, the GI50 is 4.67 µM and the TGI worked out at 18.6 µM.
In the case of `O=S(=O)(NCCNc1cc(-c2cn(-c3ccccc3)nc2-c2cccc(O)c2)ccn1)c1ccc(Br)cc1`, the GI50 is 2.7 µM and the TGI came out at 7.79 µM.
For `NC(Cc1c[nH]c2cc(F)ccc12)C(=O)O` (stereo not given), in that order: 1010 µM and above 2500 µM.
`COC(=O)[C@H](Cc1cn(C)cn1)NC(=O)[C@@H](NC(=O)Nc1cc(C(F)(F)F)cc(C(F)(F)F)c1)C(C)(C)C`: the GI50 was above 10 µM and the TGI was above 10 µM.
On to `C#C[C@]1(O)CC[C@H]2[C@@H]3CC=C4c5sc(Nc6ccc(C)cn6)nc5CC[C@]4(C)[C@H]3CC[C@@]21C`, for which the GI50 is 1.07 µM and the TGI amounted to 3.13 µM.
As to `COC1C(O)CC(OC2CC(OC3CC(O[C@@H]4C(=O)c5c(cc6cc(OC7CC(OC8CC(O)C(O)C(C)O8)C(O)C(C)O7)c(C)c(O)c6c5O)CC4[C@H](OC)[C@@H](O)C(C)=O)OC(C)C3O)OC(C)C2O)OC1C` (stereo not given in full), the GI50 is 0.0256 µM and the TGI amounted to 2.65 µM.
Consider `COC(=O)CCCNC(=O)C(=O)c1c(O)c(O)c(C(C)C)c2cc(C)c(-c3c(C)cc4c(C(C)C)c(O)c(O)c(C(=O)C(=O)NCCCC(=O)OC)c4c3O)c(O)c12`, for which the GI50 is 0.364 µM and the TGI worked out at 2.97 µM.
On to `Clc1ccc(COC(Cn2ccnc2)c2ccc(Cl)cc2Cl)c(Cl)c1` (stereo not given), for which the GI50 is 1.84 µM and the TGI came to 5.13 µM.
Turning to `CC[C@]12C=CCN3CC[C@@]4(c5cc(NC(=O)COc6cc(O)c7c(=O)cc(-c8ccccc8)oc7c6)c(OC)cc5N(C)[C@H]4[C@@](O)(C(=O)OC)[C@@H]1OC(C)=O)[C@@H]32`, the GI50 was 1.52 µM and the TGI amounted to 3 µM.
For the molecule `Cc1cc(C)c(O)c(CNCCCNCc2cc(C)cc(C)c2O)c1`, the GI50 was 1.69 µM and the TGI was 3.24 µM.
With `C=C(C)[C@@H]1CC[C@]2(CN)CC[C@]3(C)[C@H](CC[C@@H]4[C@@]5(C)CCC(N)[C@@](C)(CO)[C@@H]5CC[C@]43C)[C@@H]12` (stereo not given in full), the GI50 was 1.77 µM and the TGI turned out to be 3.42 µM.
With `C[C@@]1(O)CCC[C@H]1n1c(=O)c(C(F)F)cc2cnc(NC3CCN(S(C)(=O)=O)CC3)nc21`, the GI50 was 1.61 µM and the TGI came to 4.76 µM.
Take `C[C@@H]1OC(=O)NN=C1c1ccc(-c2ccc(F)cc2)c(C(F)(F)F)c1`: the GI50 was 1.74 µM and the TGI came to 6.61 µM.
Take `CCN(CC)CCOc1ccc(Cc2ccccc2)cc1`: the GI50 was 16.2 µM and the TGI was determined as 41.2 µM.
On to `COCC(=O)NC/C=C/c1ccc2ncnc(Nc3ccc(Oc4ccc(C)nc4)c(C)c3)c2c1`, for which the GI50 was 1.96 µM and the TGI was 10.3 µM.
Regarding `Cc1ccccc1C[P+](c1ccccc1)(c1ccccc1)c1ccccc1`, the GI50 is 0.265 µM and the TGI was 1.16 µM.
Consider `O=C(Nc1ccc(-n2ccc3c(NC(=O)c4ccccc4)nccc32)cc1)c1ccc(N2CCOCC2)c(C(F)(F)F)c1`, for which the GI50 is 1.74 µM and the TGI amounted to 19.2 µM.
For `CCCCCC(=C/c1ccccc1)/C=N/N=C(N)N`, the GI50 is 1.56 µM and the TGI turned out to be 3 µM.
Turning to `C=C1C(=O)O[C@H]2[C@H]1CC/C(Cn1cc(-c3ccsc3)nn1)=C\CC[C@@]1(C)O[C@@H]21`, the GI50 is 1.28 µM and the TGI was 3.56 µM.
The matching figures for `COc1c2occc2cc2ccc(=O)oc12`: above 100 µM and above 100 µM.
Take `N#Cc1ccc(NC(=O)Nc2nc3ccc(OC(F)(F)F)cc3s2)cc1`: the GI50 is 0.46 µM and the TGI came out at 4.84 µM.
Take `CN1CCN(c2ccc(-c3cccc(CN4CCOCC4)c3)cc2NC(=O)c2c[nH]c(=O)cc2C(F)(F)F)CC1`: the GI50 is 20.2 µM and the TGI was 92.5 µM.
With `Cc1nc2ccccc2c(/C=C/c2ccccc2)c1C(=O)/C=C/c1ccccc1`, the GI50 is 1.79 µM and the TGI was found to be 3.5 µM.
The matching figures for `COc1ccc(C(=O)c2cc(C)c(OC)c(C)c2)c(OC)c1N(C(=O)CCl)C(=O)CCl`: 0.0296 µM and 1.37 µM.
As for `CC(=Nc1ccccc1)C1=C(O)C(Cc2ccc(F)cc2)NC1=O` (stereo not given), the GI50 is 0.382 µM and the TGI was determined as 5.22 µM.
Take `CCCCCCCCCC[N+](C)(C)C`: the GI50 is 0.43 µM and the TGI was found to be 2.79 µM.
Take `CCCc1n(Cc2ccc3ccccc3n2)cc[n+]1Cc1ccc2ccccc2c1`: the GI50 is 0.273 µM and the TGI came out at 1.49 µM.
Consider `CC(C)=CCc1c(O)c(C(=O)CC(C)C)c(O)c2c(-c3ccccc3)cc(=O)oc12`, for which the GI50 is 7.74 µM and the TGI turned out to be 36.2 µM.
For `CN1CCN(Cc2ccc(NC(=O)c3cccc(C#Cc4c(N)ncc5ccc(F)cc45)c3)cc2C(F)(F)F)CC1`, in that order: 0.888 µM and 1.83 µM.
With `CCCC(=O)Nc1c(I)cc(I)c(CC(CC)C(=O)O)c1I` (stereo not given), the GI50 is above 100 µM and the TGI was above 100 µM.
Turning to `O=C1CCC(N2C(=O)c3cccc(NCCOCCOCCNC(=O)c4cc5c(o4)C(=O)c4ccccc4C5=O)c3C2=O)C(=O)N1` (stereo not given), the GI50 is 1.46 µM and the TGI worked out at 3.88 µM.

Source of the values: PubChem BioAssay (NCI).
